The data set is described as follows: Test of solubility of the starting materials and homopolyglycolide in organic solvents.

Excerpt: A solvent which could be used in the ring opening polymerization should meet criteria: i) the solvent should be good enough to dissolve all starting materials including monomer (glycolide), co-monomer, initiator, catalyst and dispersion stabilizer, and ii) it should not dissolve resulting polymer (homopolyglycolide and co-polymers).

Regarding `O=C1COC(=O)CO1` [Glycolide], the “solution concentration permitted in acetonitrile” value (solvent acetonitrile) was 50 wt-%. The “solubility in Toluene” value (solvent toluene) is on record as “bad”.

The values above are taken from patent US9657147B2, “Method for preparing glycolide polyester by ring opening polymerization” (TEKNOLOGIAN TUTKIMUSKESKUS VTT OY, priority 2011, dated 2017).
